Patent US11566022B2, “3-(5-methoxy-1-oxoisoindolin-2-yl)piperidine-2,6-dione derivatives and uses thereof” (NOVARTIS AG, priority 2019, dated 2023)

Biological target: HiBit-WIZ fusion protein (Homo sapiens, UniProt O95785+Q96SW2)
Assay: Quantification of WIZ protein levels in HiBit tag fusion protein assay (WIZ HiBit assay in 293T cells)
Format: cell-based
Design: Dmax: dose or concentration left out as unconfirmed
Settings: for Dmax / remaining activity at up to 25 µM: HEK-293T; for Dmax / % degradation of WIZ (100-Amax): 100 minus Amax; for Dmax / remaining activity at up to 25 µM / % degradation of WIZ (100-Amax) / WIZ Amax: 293T cells; for Dmax: read-out: % degradation of WIZ (100-Amax); for remaining activity at up to 25 µM / WIZ Amax: DMSO-normalized, curve-fitted percentage of WIZ-HiBit remaining at 25 uM; for remaining activity at up to 25 µM: read-out: WIZ Amax; for DC50: WIZ HiBit assay in 293T cells, 10-point, 5-fold dose response, highest concentration 25 μM, about 18 hours, read-out: WIZ AC50; for % degradation of WIZ (100-Amax): at 25 uM

Chain of HiBit-WIZ fusion protein (O95785 whole entry, the tested form may be a part): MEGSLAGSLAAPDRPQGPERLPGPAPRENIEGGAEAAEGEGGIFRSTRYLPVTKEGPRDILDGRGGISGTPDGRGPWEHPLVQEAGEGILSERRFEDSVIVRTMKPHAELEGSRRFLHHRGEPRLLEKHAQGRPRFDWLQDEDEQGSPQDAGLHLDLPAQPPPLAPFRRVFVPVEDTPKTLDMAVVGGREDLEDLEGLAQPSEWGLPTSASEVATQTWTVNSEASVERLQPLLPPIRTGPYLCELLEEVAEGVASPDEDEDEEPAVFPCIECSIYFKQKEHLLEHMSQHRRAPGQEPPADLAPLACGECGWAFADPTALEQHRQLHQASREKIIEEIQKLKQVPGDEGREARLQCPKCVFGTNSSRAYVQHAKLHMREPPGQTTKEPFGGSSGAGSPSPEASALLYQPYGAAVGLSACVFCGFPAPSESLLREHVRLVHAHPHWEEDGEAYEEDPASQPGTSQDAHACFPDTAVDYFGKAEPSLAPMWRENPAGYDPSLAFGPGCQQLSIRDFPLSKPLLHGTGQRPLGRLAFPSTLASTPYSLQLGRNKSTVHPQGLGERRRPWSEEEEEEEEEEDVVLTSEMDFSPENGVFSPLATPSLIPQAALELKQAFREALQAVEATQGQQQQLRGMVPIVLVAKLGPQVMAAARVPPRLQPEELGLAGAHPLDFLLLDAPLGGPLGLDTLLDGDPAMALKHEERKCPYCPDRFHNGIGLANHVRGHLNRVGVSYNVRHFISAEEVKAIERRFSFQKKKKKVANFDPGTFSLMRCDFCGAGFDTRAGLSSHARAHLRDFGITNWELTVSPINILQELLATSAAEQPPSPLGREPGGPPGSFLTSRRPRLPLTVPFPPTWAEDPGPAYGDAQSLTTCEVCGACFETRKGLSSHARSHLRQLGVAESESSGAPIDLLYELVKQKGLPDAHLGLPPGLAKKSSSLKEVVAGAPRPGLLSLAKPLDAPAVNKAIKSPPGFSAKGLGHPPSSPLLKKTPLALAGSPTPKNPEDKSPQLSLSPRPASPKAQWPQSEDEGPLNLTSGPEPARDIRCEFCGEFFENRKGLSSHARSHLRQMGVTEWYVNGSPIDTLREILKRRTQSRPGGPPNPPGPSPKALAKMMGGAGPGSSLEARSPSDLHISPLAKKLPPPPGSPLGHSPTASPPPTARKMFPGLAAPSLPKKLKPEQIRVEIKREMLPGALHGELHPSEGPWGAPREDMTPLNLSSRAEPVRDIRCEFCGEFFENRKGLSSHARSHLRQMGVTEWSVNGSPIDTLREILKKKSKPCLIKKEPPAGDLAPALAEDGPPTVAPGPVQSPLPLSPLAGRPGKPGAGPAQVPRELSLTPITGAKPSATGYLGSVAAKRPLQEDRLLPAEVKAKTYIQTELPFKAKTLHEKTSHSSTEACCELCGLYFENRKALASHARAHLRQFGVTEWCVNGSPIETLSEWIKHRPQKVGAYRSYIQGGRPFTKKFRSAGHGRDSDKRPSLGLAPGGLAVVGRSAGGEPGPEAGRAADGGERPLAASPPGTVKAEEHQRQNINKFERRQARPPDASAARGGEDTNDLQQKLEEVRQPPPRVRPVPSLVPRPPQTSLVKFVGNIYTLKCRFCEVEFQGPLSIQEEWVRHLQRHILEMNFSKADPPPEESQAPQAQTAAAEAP
Chain of HiBit-WIZ fusion protein (Q96SW2 whole entry, the tested form may be a part): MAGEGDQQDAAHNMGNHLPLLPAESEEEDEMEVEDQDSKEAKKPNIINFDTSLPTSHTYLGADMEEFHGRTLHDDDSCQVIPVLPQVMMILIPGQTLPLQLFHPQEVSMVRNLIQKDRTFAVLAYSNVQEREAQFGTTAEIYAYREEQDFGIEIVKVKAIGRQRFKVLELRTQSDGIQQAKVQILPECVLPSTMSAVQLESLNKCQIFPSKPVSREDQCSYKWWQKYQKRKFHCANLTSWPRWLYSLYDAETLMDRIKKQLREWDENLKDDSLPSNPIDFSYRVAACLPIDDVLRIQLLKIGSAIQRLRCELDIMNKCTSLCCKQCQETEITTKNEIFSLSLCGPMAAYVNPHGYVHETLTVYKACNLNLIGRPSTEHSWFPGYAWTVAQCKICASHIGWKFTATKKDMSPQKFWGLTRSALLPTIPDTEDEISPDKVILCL
Chain of HiBit-WIZ fusion protein (Q16531 whole entry partner, the tested form may be a part): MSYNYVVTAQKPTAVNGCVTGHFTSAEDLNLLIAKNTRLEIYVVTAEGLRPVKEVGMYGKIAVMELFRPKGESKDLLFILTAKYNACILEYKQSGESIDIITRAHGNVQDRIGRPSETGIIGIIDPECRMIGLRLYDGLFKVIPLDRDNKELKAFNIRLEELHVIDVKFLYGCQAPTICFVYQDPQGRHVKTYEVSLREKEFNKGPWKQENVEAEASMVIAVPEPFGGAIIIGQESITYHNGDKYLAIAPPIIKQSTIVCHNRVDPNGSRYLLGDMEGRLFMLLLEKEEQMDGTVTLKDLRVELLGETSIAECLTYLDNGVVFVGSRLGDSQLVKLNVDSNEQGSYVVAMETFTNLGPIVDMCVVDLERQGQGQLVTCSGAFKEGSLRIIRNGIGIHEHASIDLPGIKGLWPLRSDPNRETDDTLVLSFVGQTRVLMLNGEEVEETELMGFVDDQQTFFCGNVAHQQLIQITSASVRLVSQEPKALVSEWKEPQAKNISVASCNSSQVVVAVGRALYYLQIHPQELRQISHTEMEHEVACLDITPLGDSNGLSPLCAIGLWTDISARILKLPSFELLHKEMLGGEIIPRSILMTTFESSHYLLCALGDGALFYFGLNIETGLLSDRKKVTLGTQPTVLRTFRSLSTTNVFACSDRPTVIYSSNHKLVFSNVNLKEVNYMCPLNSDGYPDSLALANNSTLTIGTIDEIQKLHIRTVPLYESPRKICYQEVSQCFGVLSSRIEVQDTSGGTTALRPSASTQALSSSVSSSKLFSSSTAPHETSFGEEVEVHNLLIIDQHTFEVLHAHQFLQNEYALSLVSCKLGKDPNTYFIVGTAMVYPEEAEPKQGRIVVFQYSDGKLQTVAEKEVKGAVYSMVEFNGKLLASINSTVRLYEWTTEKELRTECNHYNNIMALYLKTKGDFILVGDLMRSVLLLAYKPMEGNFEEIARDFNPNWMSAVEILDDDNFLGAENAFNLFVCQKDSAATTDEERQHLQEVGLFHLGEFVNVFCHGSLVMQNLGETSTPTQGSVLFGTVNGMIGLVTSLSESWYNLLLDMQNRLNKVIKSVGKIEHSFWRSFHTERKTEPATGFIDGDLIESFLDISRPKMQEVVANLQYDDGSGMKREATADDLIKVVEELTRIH

| SMILES | Dmax [%] | remaining activity at up to 25 µM [%] | DC50 [nM] | % degradation of WIZ (100-Amax) [%] | WIZ Amax [%] |
| --- | --- | --- | --- | --- | --- |
| CCN1CCCC(C)(C)C1COc1ccc2c(c1)CN(C1CCC(=O)NC1=O)C2=O (single isomer, unassigned) [Compound I-17, 3-(5-((1-ethyl-3,3-dimethylpiperidin-2-yl)methoxy)-1-oxoisoindolin-2-yl)piperidine-2,6-dione] | 26.4 | 73.6 | > 25000 |  |  |
| CCN1CCCC(C)(C)C1COc1ccc2c(c1)CN(C1CCC(=O)NC1=O)C2=O (single isomer, unassigned) [Compound I-19, 3-(5-((1-ethyl-3,3-dimethylpiperidin-2-yl)methoxy)-1-oxoisoindolin-2-yl)piperidine-2,6-dione] |  |  | > 25000 | 34.7 | 65.3 |
| CCN1CCC[C@H]1C(C)Oc1ccc2c(c1)CN(C1CCC(=O)NC1=O)C2=O (single isomer, unassigned) [Compound I-25] |  |  | > 25000 | 46.6 | 53.4 |
| CCN1CCC[C@H]1C(C)Oc1ccc2c(c1)CN(C1CCC(=O)NC1=O)C2=O (single isomer, unassigned) [Compound I-27] |  |  | > 25000 | 15.6 | 84.4 |
| CCC(Oc1ccc2c(c1)CN(C1CCC(=O)NC1=O)C2=O)[C@@H]1CCCN1 (single isomer, unassigned) [Compound I-44] |  | 89.7 | > 25000 | 10.3 |  |
| CCC(Oc1ccc2c(c1)CN(C1CCC(=O)NC1=O)C2=O)[C@@H]1CCCN1 (single isomer, unassigned) [Compound I-45] |  |  | > 25000 | 21.3 | 78.7 |
| O=C1CCC(N2Cc3cc(OC[C@H]4CCCCN4CC4CCOC4)ccc3C2=O)C(=O)N1 (single isomer, unassigned) [Compound I-211] | 53.9 | 46.1 | 150 |  |  |
| O=C1CCC(N2Cc3cc(OC[C@H]4CCCCN4CC4CCOC4)ccc3C2=O)C(=O)N1 (single isomer, unassigned) [Compound I-213] |  |  | 120 | 55.68 | 44.32 |
| COC1CCC(CN2CCCCC2C(C)Oc2ccc3c(c2)CN(C2CCC(=O)NC2=O)C3=O)CC1 (single isomer, unassigned) [Compound I-219, 3-(5-(1-(1-((4-methoxycyclohexyl)methyl)piperidin-2-yl)ethoxy)-1-oxoisoindolin-2-yl)piperidine-2,6-dione] | 73.9 | 26.1 | 1400 |  |  |
| CCN1CCC(F)(F)CC1COc1ccc2c(c1)CN(C1CCC(=O)NC1=O)C2=O (single isomer, unassigned) [I-252 (Isomer 1), 3-(5-((1-ethyl-4,4-difluoropiperidin-2-yl)methoxy)-1-oxoisoindolin-2-yl)piperidine-2,6-dione] |  |  | 50 | 58.1 | 41.9 |
| CCN1CCC(F)(F)CC1COc1ccc2c(c1)CN(C1CCC(=O)NC1=O)C2=O (single isomer, unassigned) [I-252 (Isomer 2), 3-(5-((1-ethyl-4,4-difluoropiperidin-2-yl)methoxy)-1-oxoisoindolin-2-yl)piperidine-2,6-dione] |  |  | 11 | 77.1 | 22.9 |
| CCN1CCC(F)(F)CC1COc1ccc2c(c1)CN(C1CCC(=O)NC1=O)C2=O (single isomer, unassigned) [I-252 (Isomer 3), 3-(5-((1-ethyl-4,4-difluoropiperidin-2-yl)methoxy)-1-oxoisoindolin-2-yl)piperidine-2,6-dione] |  |  | 45 | 55.1 | 44.9 |
| CCN1C2CCC(C2)C1COc1ccc2c(c1)CN(C1CCC(=O)NC1=O)C2=O (single isomer, unassigned) [I-255 (Isomer 1), 3-(5-((endo-2-ethyl-2-azabicyclo[2.2.1]heptan-3-yl)methoxy)-1-oxoisoindolin-2-yl)piperidine-2,6-dione] |  |  | 12 | 73.2 | 26.8 |
| CCN1C2CCC(C2)C1COc1ccc2c(c1)CN(C1CCC(=O)NC1=O)C2=O (single isomer, unassigned) [I-255 (Isomer 2), 3-(5-((endo-2-ethyl-2-azabicyclo[2.2.1]heptan-3-yl)methoxy)-1-oxoisoindolin-2-yl)piperidine-2,6-dione] |  |  | 98 | 28.8 | 71.2 |
| CCN1C2CCC(C2)C1COc1ccc2c(c1)CN(C1CCC(=O)NC1=O)C2=O (single isomer, unassigned) [I-255 (Isomer 3), 3-(5-((endo-2-ethyl-2-azabicyclo[2.2.1]heptan-3-yl)methoxy)-1-oxoisoindolin-2-yl)piperidine-2,6-dione] |  |  | 360 | 26.5 | 73.5 |
| CCN1C2CCC(C2)C1COc1ccc2c(c1)CN(C1CCC(=O)NC1=O)C2=O (single isomer, unassigned) [I-255 (Isomer 4), 3-(5-((endo-2-ethyl-2-azabicyclo[2.2.1]heptan-3-yl)methoxy)-1-oxoisoindolin-2-yl)piperidine-2,6-dione] |  |  | 34 | 73.0 | 27.0 |
| COc1ccc(CN2CCCC[C@H]2COc2ccc3c(c2)CN(C2CCC(=O)NC2=O)C3=O)cc1F (stereo partly drawn) [Compound I-50a] | 52.2 | 47.8 | > 25000 |  |  |
| O=C1CCC(N2Cc3cc(OC[C@@H]4CCCCN4Cc4cccc(N5CCCC5)c4)ccc3C2=O)C(=O)N1 (stereo partly drawn) [Compound I-50aa] | 95.1 | 4.9 | 412 |  |  |
| O=C1CCC(N2Cc3cc(OC[C@@H]4CCCCN4Cc4ccccc4OCCN4CCOCC4)ccc3C2=O)C(=O)N1 (stereo partly drawn) [Compound I-50ab] | 50.8 | 49.2 | > 25000 |  |  |
| Cc1nc[nH]c1CN1CCCC[C@H]1COc1ccc2c(c1)CN(C1CCC(=O)NC1=O)C2=O (stereo partly drawn) [Compound I-50ac] | 92.3 | 7.7 | 578 |  |  |
| COc1cc2[nH]nc(CN3CCCC[C@H]3COc3ccc4c(c3)CN(C3CCC(=O)NC3=O)C4=O)c2cc1OCc1ccccc1 (stereo partly drawn) [Compound I-50ae] | 53.1 | 46.9 | > 25000 |  |  |
| O=C1CCC(N2Cc3cc(OC[C@@H]4CCCCN4Cc4n[nH]c5ccc(Oc6cccnc6)cc45)ccc3C2=O)C(=O)N1 (stereo partly drawn) [Compound I-50af] | 57.2 | 42.8 | 21100 |  |  |
| Cn1cncc1CN1CCCC[C@H]1COc1ccc2c(c1)CN(C1CCC(=O)NC1=O)C2=O (stereo partly drawn) [Compound I-50ag] | 62.8 | 37.2 | 15200 |  |  |
| Cn1nnc2cc(CN3CCCC[C@H]3COc3ccc4c(c3)CN(C3CCC(=O)NC3=O)C4=O)ccc21 (stereo partly drawn) [Compound I-50ah] | 44.4 | 55.6 | > 25000 |  |  |
| O=C1CCC(N2Cc3cc(OC[C@@H]4CCCCN4Cc4ccc(-n5nccn5)cc4)ccc3C2=O)C(=O)N1 (stereo partly drawn) [Compound I-50ai] | 77.8 | 22.2 | 591 |  |  |
